Converted amounts (≈) assume the structure as drawn. Like-named read-outs stand apart in the source and are kept apart here.
Assays:
H. influenzae = assay: MIC, broth microdilution; type: cell-based, Haemophilus influenzae
Description: (§1) MICs were determined by the microdilution method according to the Clinical and Laboratory Standards Institute guidelines. […] Finally, the 96-well plates were incubated at 37 °C for 16–20 h to observe and record the results. […] The assay for MICs was replicated at least three times.

S. aureus [1] = assay: MIC, broth microdilution; type: cell-based, Staphylococcus aureus
Description: as §1

S. pneumoniae = assay: MIC, broth microdilution; type: cell-based, Streptococcus pneumoniae
Description: as §1

S. pyogenes = assay: MIC, broth microdilution; type: cell-based, Streptococcus pyogenes
Description: as §1

M. catarrhalis = assay: MIC, broth microdilution; type: cell-based, Moraxella catarrhalis; details: Moraxella catarrhalis; M. catarrhalis 13L332, Ery-S; read-out: MIC
Description: MICs were determined by the microdilution method according to the Clinical and Laboratory Standards Institute guidelines. Briefly, the stock solution of compounds and the reference antibiotics were diluted 2-fold in sterile 96-well plates with cation-adjusted Mueller-Hinton broth, and mixed with CAMHB-containing bacteria to give a final inoculum of 5 × 10^5 CFU/mL for broth microdilution experiments. […] Finally, the 96-well plates were incubated at 37 °C for 16–20 h to observe and record the results. The lowest concentration at which no bacterial growth could be observed visually was identified as the MICs of the compounds. The assay for MICs was replicated at least three times.

S. aureus [2] = assay: MICs and MBCs against selected S. aureus isolates; type: cell-based, Staphylococcus aureus
[3] = Haemophilus influenzae, ATCC49247, H. influenzae ATCC49247, Azi-S, read-out: MIC
[4] = Streptococcus pneumoniae, ATCC49619, S. pneumoniae ATCC49619, Ery-S, read-out: MIC
[5] = Streptococcus pneumoniae, S. pneumoniae PU09, mef, read-out: MIC
[6] = Streptococcus pyogenes, S. pyogenes 12-206, c-ermTR, read-out: MIC
[7] = Streptococcus pneumoniae, S. pneumoniae 07P390, c-ermB, read-out: MIC
[8] = Staphylococcus aureus, S. aureus 15B196, c-ermB, read-out: MIC
[9] = Staphylococcus aureus, S. aureus PU32, i-ermA, read-out: MIC
[10] = Staphylococcus aureus, MRSA, strain 1, MRSA, i-ermA
[11] = Staphylococcus aureus, MRSA, strain 4, MRSA, i-ermA
[12] = Staphylococcus aureus, MRSA, strain 5, MRSA, i-ermC
[13] = Staphylococcus aureus, MRSA, strain 6, MRSA, c-ermB
[14] = Staphylococcus aureus, MRSA, strain 7, MRSA, c-ermB
[15] = Staphylococcus aureus, MRSA, strain 10, MRSA, c-ermB
[16] = Staphylococcus aureus, MRSA, strain 11, MRSA, c-ermB

CC[C@H]1OC(=O)[C@H](C)[C@@H](O[C@H]2C[C@@](C)(OC)[C@@H](O)[C@H](C)O2)[C@H](C)[C@@H](O[C@@H]2O[C@H](C)C[C@H](N(C)C)[C@H]2O)[C@](C)(O)C[C@@H](C)CN(C)[C@H](C)[C@@H](O)[C@]1(C)O [azithromycin, reference compound]
MIC (H. influenzae; [3]): 2 µg/mL (≈ 2.67 µM)
MIC (S. aureus [1]; Staphylococcus aureus, S. aureus 15B196, c-ermB): > 256 µg/mL
MIC (S. aureus [1]; Staphylococcus aureus, S. aureus PU32, i-ermA): > 256 µg/mL
MIC (S. pneumoniae; [4]): 0.25 µg/mL (≈ 0.334 µM)
MIC (S. pneumoniae; Streptococcus pneumoniae, S. pneumoniae 07P390, c-ermB): > 256 µg/mL
MIC (S. pneumoniae; [5]): 8 µg/mL (≈ 10.7 µM)
MIC (S. pyogenes; [6]): > 256 µg/mL

CC[C@H]1OC(=O)[C@H](C)[C@@H](OC(=O)NCCOCCC#Cc2ccc3c(=O)c(C(=O)O)cn(C4CC4)c3c2)[C@H](C)[C@@H](O[C@@H]2O[C@H](C)C[C@H](N(C)C)[C@H]2O)[C@](C)(O)C[C@@H](C)CN(C)[C@H](C)[C@H]2OC(=O)O[C@@]21C [116c]
MIC (H. influenzae; H. influenzae ATCC49247, Azi-S): 8 µg/mL (≈ 8.14 µM)
MIC (S. aureus [1]; S. aureus 15B196, c-ermB): 512 µg/mL (≈ 521 µM)
MIC (S. aureus [1]; S. aureus PU32, i-ermA): 32 µg/mL (≈ 32.5 µM)
MIC (S. pneumoniae; S. pneumoniae 07P390, c-ermB): 4 µg/mL (≈ 4.07 µM)
MIC (S. pneumoniae; S. pneumoniae ATCC49619, Ery-S): 0.12 µg/mL (≈ 0.122 µM)
MIC (S. pneumoniae; S. pneumoniae PU09, mef): 1 µg/mL (≈ 1.02 µM)
MIC (S. pyogenes; S. pyogenes 12-206, c-ermTR): 8 µg/mL (≈ 8.14 µM)

CC[C@H]1OC(=O)[C@H](C)[C@@H](OC(=O)NCCCOCCC#Cc2ccc3c(=O)c(C(=O)O)cn(CC)c3c2)[C@H](C)[C@@H](O[C@@H]2O[C@H](C)C[C@H](N(C)C)[C@H]2O)[C@](C)(OC)C[C@@H](C)C(=O)[C@H](C)[C@H]2NC(=O)O[C@@]21C [95f]
MIC (M. catarrhalis): 0.5 µg/mL (≈ 0.509 µM)
MIC (S. pneumoniae; [4]): ≤ 0.008 µg/mL
MIC (S. pneumoniae; Streptococcus pneumoniae, S. pneumoniae 05O173, c-ermB, mef, read-out: MIC): 4 µg/mL (≈ 4.07 µM)
MIC (S. pneumoniae; [7]): 0.12 µg/mL (≈ 0.122 µM)
MIC (S. pyogenes; [6]): 0.5 µg/mL (≈ 0.509 µM)

CC[C@H]1OC(=O)[C@H](C)[C@@H](OC(=O)NCCCOCCC#Cc2ccc3cc(C(=O)O)cnc3c2)[C@H](C)[C@@H](O[C@@H]2O[C@H](C)C[C@H](N(C)C)[C@H]2O)[C@](C)(OC)C[C@@H](C)C(=O)[C@H](C)[C@H]2NC(=O)O[C@@]21C [95j]
MIC (H. influenzae; [3]): 128 µg/mL (≈ 136 µM)
MIC (S. aureus [1]; [8]): > 256 µg/mL
MIC (S. aureus [1]; [9]): 64 µg/mL (≈ 68.1 µM)
MIC (S. pneumoniae; [4]): 1 µg/mL (≈ 1.06 µM)
MIC (S. pneumoniae; [7]): > 256 µg/mL
MIC (S. pneumoniae; [5]): 8 µg/mL (≈ 8.52 µM)
MIC (S. pyogenes; [6]): 128 µg/mL (≈ 136 µM)

CC[C@H]1OC(=O)[C@@](C)(F)C(=O)[C@H](C)[C@@H](O[C@@H]2O[C@H](C)C[C@H](N(C)C)[C@H]2O)[C@](C)(OC)C[C@@H](C)C(=O)[C@H](C)[C@H]2N(CCCCn3cc(-c4cccc(N)c4)nn3)C(=O)O[C@]12C [solithromycin]
MIC (H. influenzae; [3]): 2 µg/mL (≈ 2.37 µM)
MBC/MIC (S. aureus [2]; S. aureus ATCC29213): > 8
MIC (S. aureus [2]; Staphylococcus aureus, ATCC29213, S. aureus ATCC29213 (Table S10), read-out: MIC): 0.06 µg/mL (≈ 0.071 µM)
MBC (S. aureus [2]; [10]): > 0.5 µg/mL
MIC (S. aureus [2]; [10]): 0.06 µg/mL (≈ 0.071 µM)
MBC (S. aureus [2]; [11]): > 0.5 µg/mL
MIC (S. aureus [2]; [11]): 0.06 µg/mL (≈ 0.071 µM)
MBC (S. aureus [2]; [12]): 0.5 µg/mL (≈ 0.592 µM)
MIC (S. aureus [2]; [12]): 0.06 µg/mL (≈ 0.071 µM)
MBC (S. aureus [2]; [13]): > 2 µg/mL
MIC (S. aureus [2]; [13]): 0.25 µg/mL (≈ 0.296 µM)
MBC (S. aureus [2]; [14]): > 4 µg/mL
MIC (S. aureus [2]; [14]): 0.5 µg/mL (≈ 0.592 µM)
MBC (S. aureus [2]; [15]): > 2 µg/mL
MIC (S. aureus [2]; [15]): 0.25 µg/mL (≈ 0.296 µM)
MBC (S. aureus [2]; [16]): > 2 µg/mL
MIC (S. aureus [2]; [16]): 0.25 µg/mL (≈ 0.296 µM)
MIC (S. aureus [2]; Staphylococcus aureus, MSSA, strain 2, MSSA, i-ermC, read-out: MIC): 0.06 µg/mL (≈ 0.071 µM)
MIC (S. aureus [2]; Staphylococcus aureus, MSSA, strain 3, MSSA, i-ermC, read-out: MIC): 0.06 µg/mL (≈ 0.071 µM)
MBC (S. aureus [2]; Staphylococcus aureus, MSSA, strain 8, MSSA, c-ermB): 128 µg/mL (≈ 151 µM)
MIC (S. aureus [2]; Staphylococcus aureus, MSSA, strain 8, MSSA, c-ermB, read-out: MIC): 16 µg/mL (≈ 18.9 µM)
MBC (S. aureus [2]; Staphylococcus aureus, MSSA, strain 9, MSSA, c-ermB): > 256 µg/mL
MIC (S. aureus [2]; Staphylococcus aureus, MSSA, strain 9, MSSA, c-ermB, read-out: MIC): 32 µg/mL (≈ 37.9 µM)
MBC (S. aureus [2]; Staphylococcus aureus, S. aureus ATCC29213, read-out: MBC): > 0.5 µg/mL
MBC (S. aureus [2]; Staphylococcus aureus, strain 3, MSSA, i-ermC, read-out: MBC): > 0.5 µg/mL
bactericidal or bacteriostatic by MBC/MIC (S. aureus [2]; selected S. aureus isolates): bacteriostatic against all selected isolates
MBC/MIC (S. aureus [2]; strain 1, MRSA, i-ermA): > 8
MBC (S. aureus [2]; strain 2, MSSA, i-ermC): > 0.5 µg/mL
MBC/MIC (S. aureus [2]; strain 2, MSSA, i-ermC): > 8
MBC/MIC (S. aureus [2]; strain 3, MSSA, i-ermC): > 8
MBC/MIC (S. aureus [2]; strain 4, MRSA, i-ermA): > 8
MBC/MIC (S. aureus [2]; strain 5, MRSA, i-ermC): 8
MBC/MIC (S. aureus [2]; strain 6, MRSA, c-ermB): > 8
MBC/MIC (S. aureus [2]; strain 7, MRSA, c-ermB): > 8
MBC/MIC (S. aureus [2]; strain 8, MSSA, c-ermB): 8
MBC/MIC (S. aureus [2]; strain 9, MSSA, c-ermB): > 8
MBC/MIC (S. aureus [2]; strain 10, MRSA, c-ermB): > 8
MBC/MIC (S. aureus [2]; strain 11, MRSA, c-ermB): > 8
MIC (S. pneumoniae; [4]): 0.016 µg/mL (≈ 0.0189 µM)
MIC (S. pneumoniae; [7]): 0.03 µg/mL (≈ 0.0355 µM)
MIC (S. pneumoniae; [5]): 0.5 µg/mL (≈ 0.592 µM)
MIC (S. pyogenes; Streptococcus pyogenes, S. pyogenes 01-968, i-ermTR (Table S5), read-out: MIC): 0.016 µg/mL (≈ 0.0189 µM)
MIC (S. pyogenes; Streptococcus pyogenes, S. pyogenes 12-206, c-ermB (Table S5), read-out: MIC): 0.03 µg/mL (≈ 0.0355 µM)

CC[C@H]1OC(=O)[C@H](C)[C@@H](OC(=O)NCCCOCCC#Cc2ccc3c(=O)c(C(=O)O)c[nH]c3c2)[C@H](C)[C@@H](O[C@@H]2O[C@H](C)C[C@H](N(C)C)[C@H]2O)[C@](C)(OC)C[C@@H](C)C(=O)[C@H](C)[C@H]2NC(=O)O[C@@]21C [95i]
MIC (H. influenzae; [3]): 16 µg/mL (≈ 16.8 µM)
MIC (S. aureus [1]; [8]): 128 µg/mL (≈ 134 µM)
MIC (S. aureus [1]; [9]): 8 µg/mL (≈ 8.38 µM)
MIC (S. pneumoniae; [4]): 0.12 µg/mL (≈ 0.126 µM)
MIC (S. pneumoniae; [7]): 1 µg/mL (≈ 1.05 µM)
MIC (S. pneumoniae; [5]): 0.5 µg/mL (≈ 0.523 µM)
MIC (S. pyogenes; [6]): 1 µg/mL (≈ 1.05 µM)

CCC1OC(=O)C(C)C(OC(=O)NCCCCCC#Cc2ccc3c(c2)c(=O)c(C(=O)O)cn3C2CC2)C(C)C(OC2OC(C)CC(N(C)C)C2O)C(C)(OC)CC(C)C(=NOC)C(C)C2OC(=O)OC12C (centres unmarked) [57a]
MIC (H. influenzae; [3]): > 256 µg/mL
MIC (S. aureus [1]; [8]): 128 µg/mL (≈ 127 µM)
MIC (S. aureus [1]; [9]): 16 µg/mL (≈ 15.9 µM)
MIC (S. pneumoniae; [4]): 0.25 µg/mL (≈ 0.248 µM)
MIC (S. pneumoniae; [7]): 64 µg/mL (≈ 63.4 µM)
MIC (S. pneumoniae; [5]): 1 µg/mL (≈ 0.991 µM)
MIC (S. pyogenes; [6]): 32 µg/mL (≈ 31.7 µM)

Source: PMC11239830, “Synthetic macrolides overcoming MLSBK-resistant pathogens” (Cell Discovery, 2024)
